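Cultured in 96-well plates, cells were exposed to test compound for 48 hours across five concentrations. GI50: concentration for 50% inhibition of growth.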 Activity calls are given as the source filed them. Cut-off read from the data, not from the text of the source: active = GI50 up to about 1.1 µM and inactive = higher.
How the values were obtained:
Assay in all cases: NCI anticancer screen, dose series, 48 h
[1] = system: OVCAR-4
[2] = system: RXF 393
[3] = system: HCT-15
[4] = system: HL-60
[5] = system: SNB-75
[6] = system: M14
[7] = system: K562
[8] = system: LOX IMVI
[9] = system: EKVX
[10] = system: UACC-62
[11] = system: CCRF-CEM
[12] = system: SK-MEL-2
[13] = system: HCT-116
[14] = system: OVCAR-8
[15] = system: SF-268
[16] = system: RPMI-8226
[17] = system: ACHN

SMILES	GI50 [1]	GI50 [2]	GI50 [3] [µM]	GI50 [4]	GI50 [5]	GI50 [6]	GI50 [7]	GI50 [8]	GI50 [9]	GI50 [10]	GI50 [11]	GI50 [12]	GI50 [13]	GI50 [14]	GI50 [15]	GI50 [16]	GI50 [17]
COc1cc2c(c(OC)c1OC)-c1ccc(SC)c(=O)cc1C(CC(=O)Oc1cccc(C#N)c1)C2 (stereo not given)	3.32 µM (inactive)	0.167 µM (active)	0.33	0.254 µM (active)	0.291 µM (active)	0.298 µM (active)	0.181 µM (active)	0.484 µM (active)	0.574 µM (active)	0.202 µM (active)	0.337 µM (active)	0.348 µM (active)	0.387 µM (active)	0.423 µM (active)	0.512 µM (active)	0.583 µM (active)	0.593 µM (active)
Cc1c(/C=N/NC(=O)c2ccccc2)c(=O)n(-c2ccccc2)n1C	> 100 µM (inactive)	> 100 µM (inactive)	> 100	> 100 µM (inactive)	> 100 µM (inactive)	> 100 µM (inactive)	> 100 µM (inactive)	> 100 µM (inactive)	> 100 µM (inactive)	> 100 µM (inactive)	> 100 µM (inactive)	> 100 µM (inactive)	> 100 µM (inactive)	> 100 µM (inactive)	> 100 µM (inactive)	> 100 µM (inactive)	> 100 µM (inactive)
CCc1cc(Cc2ccc(C)c(NC(=O)C(=O)C3C(=O)NC(=O)NC3=O)c2CC)cc(C)c1NC(=O)C(=O)C1C(=O)NC(=O)NC1=O	> 100 µM (inactive)	> 100 µM (inactive)	> 100	> 100 µM (inactive)	24.6 µM (inactive)	> 100 µM (inactive)	> 100 µM (inactive)	> 100 µM (inactive)	> 100 µM (inactive)	> 100 µM (inactive)	> 100 µM (inactive)	> 100 µM (inactive)	> 100 µM (inactive)	> 100 µM (inactive)	> 100 µM (inactive)	> 100 µM (inactive)	> 100 µM (inactive)
O=C1OC(O)C(Oc2c(Cl)cccc2Cl)=C1Cl (stereo not given)	–	11.3 µM (inactive)	15.6	20 µM (inactive)	25.6 µM (inactive)	17 µM (inactive)	17.3 µM (inactive)	17.9 µM (inactive)	29.6 µM (inactive)	11.9 µM (inactive)	19.9 µM (inactive)	15.3 µM (inactive)	14.8 µM (inactive)	17.5 µM (inactive)	16 µM (inactive)	18.1 µM (inactive)	17.2 µM (inactive)
CC1=CC(=O)NP(=O)(C23CC4CC(CC(C4)C2)C3)N1 (stereo not given)	> 100 µM (inactive)	–	> 100	> 100 µM (inactive)	> 100 µM (inactive)	> 100 µM (inactive)	> 100 µM (inactive)	> 100 µM (inactive)	> 100 µM (inactive)	> 100 µM (inactive)	> 100 µM (inactive)	> 100 µM (inactive)	> 100 µM (inactive)	> 100 µM (inactive)	> 100 µM (inactive)	> 100 µM (inactive)	> 100 µM (inactive)
COc1cc(Br)c(CC2(C#N)c3ccccc3C3C(N2C(=O)c2ccccc2)C3(Cl)Cl)cc1OC (stereo not given)	–	> 65.5 µM (inactive)	> 65.5	1.51 µM (inactive)	> 65.5 µM (inactive)	42.4 µM (inactive)	5.7 µM (inactive)	> 65.5 µM (inactive)	> 65.5 µM (inactive)	33.5 µM (inactive)	> 65.5 µM (inactive)	> 65.5 µM (inactive)	> 65.5 µM (inactive)	> 65.5 µM (inactive)	> 65.5 µM (inactive)	0.935 µM (active)	> 65.5 µM (inactive)
CCOC(=O)/C(C#N)=C/c1[nH]c(C(=O)OCc2ccccc2)c(C)c1C	> 100 µM (inactive)	> 100 µM (inactive)	> 100	> 100 µM (inactive)	> 100 µM (inactive)	> 100 µM (inactive)	> 100 µM (inactive)	> 100 µM (inactive)	> 100 µM (inactive)	> 100 µM (inactive)	> 100 µM (inactive)	> 100 µM (inactive)	–	> 100 µM (inactive)	> 100 µM (inactive)	> 100 µM (inactive)	> 100 µM (inactive)
OCCCCOC(c1ccccc1)(c1ccccc1)c1ccccc1	> 100 µM (inactive)	> 100 µM (inactive)	> 100	> 100 µM (inactive)	67.5 µM (inactive)	> 100 µM (inactive)	> 100 µM (inactive)	> 100 µM (inactive)	–	> 100 µM (inactive)	> 100 µM (inactive)	–	> 100 µM (inactive)	> 100 µM (inactive)	> 100 µM (inactive)	> 100 µM (inactive)	> 100 µM (inactive)
c1ccc2[nH]c(-c3nc4ccccc4o3)nc2c1	> 100 µM (inactive)	–	> 100	17.6 µM (inactive)	> 100 µM (inactive)	> 100 µM (inactive)	–	66.1 µM (inactive)	8.65 µM (inactive)	–	> 100 µM (inactive)	> 100 µM (inactive)	> 100 µM (inactive)	> 100 µM (inactive)	> 100 µM (inactive)	81.3 µM (inactive)	> 100 µM (inactive)
CC(C(=O)c1ccccc1)C1(O)C(=O)Nc2ccccc21 (stereo not given)	> 100 µM (inactive)	> 100 µM (inactive)	> 100	–	> 100 µM (inactive)	> 100 µM (inactive)	> 100 µM (inactive)	> 100 µM (inactive)	> 100 µM (inactive)	> 100 µM (inactive)	> 100 µM (inactive)	> 100 µM (inactive)	> 100 µM (inactive)	–	> 100 µM (inactive)	> 100 µM (inactive)	> 100 µM (inactive)
COC(=O)[C@H](CC(C)C)NC(=O)[C@H](Cc1ccccc1)N1CC2C=CC1C2 (stereo not given in full)	> 100 µM (inactive)	> 100 µM (inactive)	> 100	47.6 µM (inactive)	> 100 µM (inactive)	> 100 µM (inactive)	> 100 µM (inactive)	> 100 µM (inactive)	> 100 µM (inactive)	> 100 µM (inactive)	> 100 µM (inactive)	> 100 µM (inactive)	–	> 100 µM (inactive)	> 100 µM (inactive)	29.1 µM (inactive)	> 100 µM (inactive)
CC1(C)CC(=O)C(CC2C(=O)c3ccccc3C2=O)C(=O)C1	> 100 µM (inactive)	> 100 µM (inactive)	> 100	> 100 µM (inactive)	> 100 µM (inactive)	> 100 µM (inactive)	> 100 µM (inactive)	> 100 µM (inactive)	> 100 µM (inactive)	> 100 µM (inactive)	> 100 µM (inactive)	> 100 µM (inactive)	> 100 µM (inactive)	> 100 µM (inactive)	> 100 µM (inactive)	–	> 100 µM (inactive)
COc1ccc2nc(NC(=O)C(=O)C(C(=O)c3ccccc3-c3ccccc3)C3OC(=O)c4ccccc43)sc2c1 (stereo not given)	–	10.2 µM (inactive)	–	16 µM (inactive)	16.1 µM (inactive)	19 µM (inactive)	30.2 µM (inactive)	17 µM (inactive)	21.7 µM (inactive)	17.3 µM (inactive)	15.5 µM (inactive)	13.6 µM (inactive)	14.5 µM (inactive)	20.1 µM (inactive)	20 µM (inactive)	10.7 µM (inactive)	26 µM (inactive)
O=C(O)CCc1coc2ccc(O)cc12	> 100 µM (inactive)	> 100 µM (inactive)	> 100	> 100 µM (inactive)	> 100 µM (inactive)	> 100 µM (inactive)	> 100 µM (inactive)	> 100 µM (inactive)	> 100 µM (inactive)	> 100 µM (inactive)	> 100 µM (inactive)	–	> 100 µM (inactive)	> 100 µM (inactive)	–	> 100 µM (inactive)	> 100 µM (inactive)
CC(=O)Nc1ccccc1-c1cnc2ccccc2n1	> 100 µM (inactive)	–	> 100	> 100 µM (inactive)	> 100 µM (inactive)	> 100 µM (inactive)	> 100 µM (inactive)	> 100 µM (inactive)	> 100 µM (inactive)	> 100 µM (inactive)	> 100 µM (inactive)	–	> 100 µM (inactive)	> 100 µM (inactive)	> 100 µM (inactive)	> 100 µM (inactive)	> 100 µM (inactive)
C=CCC(C)(C(=O)NCCC)C(=O)c1ccccc1O (stereo not given)	> 100 µM (inactive)	> 100 µM (inactive)	> 100	> 100 µM (inactive)	> 100 µM (inactive)	> 100 µM (inactive)	> 100 µM (inactive)	–	–	> 100 µM (inactive)	> 100 µM (inactive)	> 100 µM (inactive)	> 100 µM (inactive)	> 100 µM (inactive)	> 100 µM (inactive)	> 100 µM (inactive)	> 100 µM (inactive)
COc1ccc2c(c1)C1(C=N2)CCN(C(C)=O)CC1	> 100 µM (inactive)	–	> 100	> 100 µM (inactive)	41.1 µM (inactive)	> 100 µM (inactive)	> 100 µM (inactive)	> 100 µM (inactive)	> 100 µM (inactive)	> 100 µM (inactive)	> 100 µM (inactive)	> 100 µM (inactive)	> 100 µM (inactive)	> 100 µM (inactive)	48 µM (inactive)	50.4 µM (inactive)	> 100 µM (inactive)
Cc1c(C(=O)CSc2nc3ccccc3[nH]2)c(=O)n(-c2ccccc2)n1C	> 100 µM (inactive)	–	> 100	> 100 µM (inactive)	> 100 µM (inactive)	> 100 µM (inactive)	–	> 100 µM (inactive)	–	–	> 100 µM (inactive)	> 100 µM (inactive)	> 100 µM (inactive)	> 100 µM (inactive)	> 100 µM (inactive)	> 100 µM (inactive)	> 100 µM (inactive)

From ChEMBL document CHEMBL1201862, “PubChem BioAssay data set” (2004)
